This assay addresses T1, Gastrin/cholecystokinin type B receptor (Homo sapiens, UniProt P32239).
T1 sequence (P32239 whole entry): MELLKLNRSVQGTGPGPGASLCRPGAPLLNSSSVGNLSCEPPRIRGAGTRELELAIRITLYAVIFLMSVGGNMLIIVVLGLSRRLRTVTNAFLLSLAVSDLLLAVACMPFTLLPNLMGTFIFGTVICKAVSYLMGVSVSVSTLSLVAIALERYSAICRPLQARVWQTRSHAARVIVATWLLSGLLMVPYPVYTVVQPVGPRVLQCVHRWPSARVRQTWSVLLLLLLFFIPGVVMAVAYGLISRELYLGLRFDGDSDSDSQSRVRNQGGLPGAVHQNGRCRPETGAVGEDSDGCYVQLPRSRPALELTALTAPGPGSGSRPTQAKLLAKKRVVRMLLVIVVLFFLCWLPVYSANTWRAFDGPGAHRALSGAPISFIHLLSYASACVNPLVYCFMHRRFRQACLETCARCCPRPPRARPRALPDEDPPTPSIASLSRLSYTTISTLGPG

In BindingDB's records for doi:10.1021/jm970265x (Glaxo Wellcome Research and Development, 1997) one finds Ki data, which are given here for eight compounds.

Where “and” joins values, the source holds several entries; their conditions need not be identical. Equal values may be shown once.

As to `CC(C)N(C(=O)CN1C(=O)C(Cc2n[nH]c3ccccc23)C(=O)N(c2ccccc2)c2ccccc21)c1ccc2c(c1)OCO2` (stereo not drawn) [CCK-A Agonist 42], the affinity, expressed as Ki, was 724 nM.
On to `COc1ccc(N(C(=O)CN2C(=O)C(Cc3n[nH]c4c(F)cccc34)C(=O)N(c3ccccc3)c3ccccc32)C(C)C)cc1` (stereo not drawn) [CCK-A Agonist 34], for which the Ki – broadly, the equilibrium dissociation constant of an inhibitor or competing ligand from its target – came out at 1050 nM. This Ki and that of the compound before are within 1.5-fold of each other.
For `CC(C)(C)N(C(=O)CN1C(=O)C(Cc2n[nH]c3ccccc23)C(=O)N(c2ccccc2)c2ccccc21)c1ccccc1` (stereo not drawn) [CCK-A Agonist 45], the affinity, expressed as Ki, was 891 nM.
For the compound `COc1cccc(N(C(=O)CN2C(=O)C(Cc3n[nH]c4ccccc34)C(=O)N(c3ccccc3)c3ccccc32)C(C)C)c1` (stereo not drawn) [CCK-A Agonist 40], the Ki is 479 nM and 191 nM.
Take `CC(C)N(C(=O)CN1C(=O)C(Cc2n[nH]c3ccccc23)C(=O)N(c2ccccc2)c2ccccc21)c1ccc(F)cc1` (stereo not drawn) [CCK-A Agonist 38]: the Ki was 138 nM and 479 nM.
Take `CC(C)N(C(=O)CN1C(=O)C(Cc2n[nH]c3ccccc23)C(=O)N(c2ccccc2)c2ccccc21)c1ccc(C(F)(F)F)cc1` (stereo not drawn) [CCK-A Agonist 39]: affinity was put at a Ki of 1660 nM.
In the case of `COc1ccccc1N(C(=O)CN1C(=O)C(Cc2n[nH]c3ccccc23)C(=O)N(c2ccccc2)c2ccccc21)C(C)C` (stereo not drawn) [CCK-A Agonist 41] it was 129 nM; in that of `CC(C)N(C(=O)CN1C(=O)C(Cc2n[nH]c3ccccc23)C(=O)N(c2ccccc2)c2ccccc21)c1ccccc1` (stereo not drawn) [CCK-A Agonist 37], 87.1 nM and 178 nM.
